Reference: PubChem BioAssay AID1845202 (Molecular Pharmacology Branch, DTP, NCI, 2023)
“And” between values parts separate entries of the source, which are not always exact repeats. Equal entries are not always repeated.

Tested on: DMS 114 tumor spheroids, viability % test/control
Test: Anticancer human tumor DMS 114 cell line growth inhibition;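 note: spheroids exposed to compounds for 7 days before read-out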;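 for viability, T/C: luminescence used as a proxy for viable cells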
Conditions: spheroids with HUVEC and MSC; for viability, T/C: stronger effect = lower value
Description: Multicellular complex tumor spheroid response to DNA repair inhibitors in combination with DNA-damaging drugs
This study explores the anticancer activities of DNA-damaging drugs and inhibitors of DNA damage repair, both as single agents and in combinations. Complex tumor spheroids comprised of malignant cells, endothelial cells and mesenchymal stem cells served as an in vitro model for human solid tumors. This model system incorporates physiologically relevant features and patient-derived or established malignant cell lines with clinically relevant genetic alterations from many tumor types. Twenty-six patient-derived or established malignant cell lines were evaluated representing sarcoma, melanoma, small cell lung cancer (SCLC), non-small cell lung cancer (NSCLC), as well as bladder, ovarian and pancreatic cancers. The concentration ranges selected for each drug and investigational agent were based upon clinically achievable concentrations if the clinical Cmax of the agent was known.
Compounds. The drugs and compounds olaparib (NSC753686), talazoparib (NSC767125), berzosertib (NSC777718), elimusertib (NSC800525), nedisertib (NSC802822), VX-984 (NSC792969), AZD-1390 (NSC803789), temozolomide (NSC362856), topotecan (NSC609699), trabectedin (NSC813783), staurosporine (NSC755774), and gemcitabine (NSC613327) were obtained from the National Cancer Institute (NCI) Developmental Therapeutics Program Chemical Repository. The FDA-approved anticancer drug set is available from the Developmental Therapeutics Program at https://dtp.cancer.gov/organization/dscb/obtaining/available_plates.htm. […] The stock solutions were prepared in dimethyl sulfoxide (DMSO, Sigma-Aldrich, St. Louis, MO, cat. D2650) at 400-fold the tested concentration and stored at -70 degrees C. Prior to their use, the stock solutions were diluted in fresh medium and the final DMSO concentration in the assay was 0.25% (v/v). All drugs and investigational agents were tested over a range starting from a high concentration at or near the clinical Cmax and decreasing in half-log increments. If the clinical Cmax for an agent had not been determined, the highest concentration tested was 10 microM.
Cell Lines. The patient-derived cancer cell (PDC) lines: 156681-154-R-J1-PDC, 283228-195-R-J1-PDC, 287954-098-R-J1-PDC, 292921-168-R-J2-PDC, 349418-098-R-PDC, 425362-245-T-J1-PDC, 556581-035-R-J1-PDC, and BL0293-F563-PDC were received from the NCI Patient-Derived Models Repository (PDMR, https://pdmr.cancer.gov). The established cell lines HS-SY-2 (RRID:CVCL_8719), MPNST, and SYO-1 (RRID:CVCL_7146) were obtained from the Sloan Kettering Institute. The alveolar soft parts sarcoma cell line ASPS-1 (RRID:CVCL_S738) was established at the NCI and grown from internal seed stocks. The following established cell lines were purchased from the American Type Culture Collection (ATCC, Manassas, VA): G-401 (ATCC, cat. CRL-1441, RRID:CVCL_0270), SW982 (ATCC, cat. HTB-93, RRID:CVCL_1734), VA-ES-BJ (ATCC, cat. CRL-2138, RRID:CVCL_1785), NCI-H719 (ATCC, cat. CRL-5837, RRID:CVCL_1582), NCI-H196 (ATCC, cat. CRL-5823, RRID:CVCL_1509), NCI-H841 (ATCC, cat. CRL-5845, RRID:CVCL_1595), NCI-H1618 (ATCC, cat. CRL-5879, RRID:CVCL_1480), NCI-H1876 (ATCC, cat. CRL-5902, RRID:CVCL_1503), DMS 114 (ATCC, cat. CRL-2066; RRID:CVCL_1174), NCI-H211 (ATCC, cat. CRL-5824; RRID:CVCL_1529), and SW 1271 (ATCC, cat. CRL-2177, RRID:CVCL_1716). The small cell lung cancer cell line COR-L88 was purchased from Sigma-Aldrich (cat. 92031917-1VL, RRID:CVCL_1141). The non-small cell lung cancer cell lines NCI-H226 (RRID:CVCL_1544) and NCI-H322M (RRID:CVCL_1557) were established at the NCI and grown from internal seed stocks. Pooled donor human umbilical vein endothelial cells (HUVEC, Lonza, cat. CC-2519) and human mesenchymal stem cells (hMSC, Lonza, cat. PT-2501) were purchased from Lonza (Walkersville, MD).
Cell Culture. All cells were maintained in an incubator at 37 degrees C and 5% CO2 with 95% humidity. […]

Structure (SMILES): CC1COCCN1c1cc(-c2ccnn2C)c2ccnc(-c3ccn[nH]3)c2n1 (centres undefined) + Cn1nnc2c(C(N)=O)ncn2c1=O
- IC50 (curve of first compound, second compound 1 µM): 44.3 nM
- IC50 (curve of first compound, second compound 3.16 µM): 55.8 nM
- IC50 (curve of first compound, second compound 10 µM): 33.9 nM
- IC50 (curve of first compound, second compound 31.6 µM): < 31.6 nM
- IC50 (curve of first compound, second compound 100 µM): < 31.6 nM
- viability, T/C (second compound 1 µM, first compound 0.0316 µM): 56.6%
- viability, T/C (second compound 1 µM, first compound 0.1 µM): 33.9%
- viability, T/C (second compound 1 µM, first compound 0.316 µM): 22.8%
- viability, T/C (second compound 1 µM, first compound 1 µM): 11.8%
- viability, T/C (second compound 1 µM, first compound 3.16 µM): 10.1%
- viability, T/C (second compound 1 µM, first compound 10 µM): 10.4%
- viability, T/C (second compound 3.16 µM, first compound 0.0316 µM): 63%
- viability, T/C (second compound 3.16 µM, first compound 0.1 µM): 35.4%
- viability, T/C (second compound 3.16 µM, first compound 0.316 µM): 24.9%
- viability, T/C (second compound 3.16 µM, first compound 1 µM): 13.2%
- viability, T/C (second compound 3.16 µM, first compound 3.16 µM): 9.36%
- viability, T/C (second compound 3.16 µM, first compound 10 µM): 10.9%
- viability, T/C (second compound 10 µM, first compound 0.0316 µM): 51%
- viability, T/C (second compound 10 µM, first compound 0.1 µM): 35.5%
- viability, T/C (second compound 10 µM, first compound 0.316 µM): 21.7%
- viability, T/C (second compound 10 µM, first compound 1 µM): 11.9%
- viability, T/C (second compound 10 µM, first compound 3.16 µM): 10.2%
- viability, T/C (second compound 10 µM, first compound 10 µM): 11.7%
- viability, T/C (second compound 31.6 µM, first compound 0.0316 µM): 36.9%
- viability, T/C (second compound 31.6 µM, first compound 0.1 µM): 30.3%
- viability, T/C (second compound 31.6 µM, first compound 0.316 µM): 20.5%
- viability, T/C (second compound 31.6 µM, first compound 1 µM): 13.5%
- viability, T/C (second compound 31.6 µM, first compound 3.16 µM): 9.89%
- viability, T/C (second compound 31.6 µM, first compound 10 µM): 10.1%
- viability, T/C (second compound 100 µM, first compound 0.0316 µM): 24%
- viability, T/C (second compound 100 µM, first compound 0.1 µM): 21.3%
- viability, T/C (second compound 100 µM, first compound 0.316 µM): 16.1%
- viability, T/C (second compound 100 µM, first compound 1 µM): 10.8%
- viability, T/C (second compound 100 µM, first compound 3.16 µM): 8.42%
- viability, T/C (second compound 100 µM, first compound 10 µM): 10.2%

Structure (SMILES): Cc1sc2c(c1C)C(c1ccc(Cl)cc1)=NC(CC(=O)Nc1ccc(O)cc1)c1nnc(C)n1-2 (centres undefined)
- viability, T/C (compound 0.00949 µM): 99% and 105% and 95%
- viability, T/C (compound 0.03 µM): 111% and 108% and 107%
- viability, T/C (compound 0.0949 µM): 69.5% and 72.7% and 55.8%
- viability, T/C (compound 0.3 µM): 27.6% and 24.4% and 18.9%
- viability, T/C (compound 0.949 µM): 11.3% and 9.42% and 7.59%
- viability, T/C (compound 3 µM): 7.11% and 4.64% and 4.8%
- IC50 (curve of compound): 164 nM and 116 nM

Structure (SMILES): CC(C)n1c(=O)n(C)c2cnc3cc(F)c(-c4ccc(OCCCN5CCCCC5)nc4)cc3c21
- viability, T/C (compound 0.0316 µM): 106% and 99.8% and 105%
- viability, T/C (compound 0.1 µM): 104% and 103% and 107%
- viability, T/C (compound 0.316 µM): 101% and 97.2% and 106%
- viability, T/C (compound 1 µM): 97.8% and 102% and 93.4%
- viability, T/C (compound 3.16 µM): 70.1% and 88% and 73.8%
- viability, T/C (compound 10 µM): 22.5% and 34.4% and 22.6%
- IC50 (curve of compound): 5150 nM and 7210 nM and 5370 nM
